Laboratory results reported in ChEMBL document CHEMBL3102853, “Carbonic anhydrase inhibitors. Synthesis, and molecular structure of novel series N-substituted N'-(2-arylmethylthio-4-chloro-5-methylbenzenesulfonyl)guanidines and their inhibition of human cytosolic isozymes I and II and the transmembrane tumor-associated isozymes IX and XII” (Eur J Med Chem, 2014).
The source made the active and inactive calls. No cut-off for these calls is given here.

What was measured:
Type in all cases: functional
[1] = system: MCF7; assay: Cytotoxicity against human MCF7 cells at 10 uM; conditions: read-out: GI
[2] = system: A498; assay: Cytotoxicity against human A498 cells at 10 uM
[3] = Cytotoxicity against human Hs 578T cells at 10 uM; conditions: read-out: GI
[4] = system: MOLT-4; assay: Cytotoxicity against human MOLT4 cells at 10 uM; conditions: read-out: GI
[5] = system: DU-145; assay: Cytotoxicity against human DU145 cells at 10 uM
[6] = Cytotoxicity against human NCI-ADR-RES cells at 10 uM; conditions: read-out: GI
[7] = system: HT-29; assay: Cytotoxicity against human HT-29 cells at 10 uM
[8] = system: A549; assay: Cytotoxicity against human A549 cells at 10 uM; conditions: read-out: GI
[9] = system: T47D; assay: Cytotoxicity against human T47D cells at 10 uM; conditions: read-out: GI
[10] = system: HOP-92; assay: Cytotoxicity against human HOP92 cells at 10 uM; conditions: read-out: GI
[11] = system: SNB-75; assay: Cytotoxicity against human SNB75 cells at 10 uM; conditions: read-out: GI
[12] = system: OVCAR-3; assay: Cytotoxicity against human OVCAR3 cells at 10 uM; conditions: read-out: GI
[13] = system: SW-620; assay: Cytotoxicity against human SW620 cells at 10 uM
[14] = system: RPMI-8226; assay: Cytotoxicity against human RPMI8226 cells at 10 uM; conditions: read-out: GI
[15] = system: SK-MEL-2; assay: Cytotoxicity against human SK-MEL-2 cells at 10 uM; conditions: read-out: GI
[16] = system: SR; assay: Cytotoxicity against human SR cells at 10 uM; conditions: read-out: GI
[17] = system: PC-3; assay: Cytotoxicity against human PC3 cells at 10 uM; conditions: read-out: GI
[18] = system: NCI-H460; assay: Cytotoxicity against human NCI-H460 cells at 10 uM
[19] = system: SF-268; assay: Cytotoxicity against human SF268 cells at 10 uM; conditions: read-out: GI
[20] = system: LOX IMVI; assay: Cytotoxicity against human LOXIMVI cells at 10 uM; conditions: read-out: GI
[21] = system: UACC-62; assay: Cytotoxicity against human UACC62 cells at 10 uM; conditions: read-out: GI
[22] = system: MDA-MB-468; assay: Cytotoxicity against human MDA-MB-468 cells at 10 uM; conditions: read-out: GI
[23] = system: KM12; assay: Cytotoxicity against human KM12 cells at 10 uM; conditions: read-out: GI

Structure (SMILES): Cc1cc(S(=O)(=O)NC(=N)Nc2ccc(S(N)(=O)=O)cc2)c(SCc2cc3c(cc2Cl)OCO3)cc1Cl
- inhibition of growth at 10 µM [1]: 4%
- growth inhibition (GI) [2]: inactive
- inhibition of growth at 10 µM [3]: 2%
- inhibition of growth at 10 µM [4]: 20%
- growth inhibition (GI) [5]: inactive
- inhibition of growth at 10 µM [6]: 1%
- growth inhibition (GI) [7]: inactive
- inhibition of growth at 10 µM [8]: 4%
- inhibition of growth at 10 µM [9]: 23%
- inhibition of growth at 10 µM [10]: 29%
- inhibition of growth at 10 µM [11]: 22%
- inhibition of growth at 10 µM [12]: 12%
- growth inhibition (GI) [13]: inactive
- inhibition of growth at 10 µM [14]: 10%
- inhibition of growth at 10 µM [15]: 9%
- inhibition of growth at 10 µM [16]: 25%
- inhibition of growth at 10 µM [17]: 25%
- growth inhibition (GI) [18]: inactive
- inhibition of growth at 10 µM [19]: 5%
- inhibition of growth at 10 µM [20]: 8%
- inhibition of growth at 10 µM [21]: 17%
- inhibition of growth at 10 µM [22]: 41%
- inhibition of growth at 10 µM [23]: 8%
